Data from patent publication EP0162545A2, “Enhanced bioconversion processes” (BETZ EUROPE, INC., priority 1984, dated 1985).

System: Klebsiella
Assay: Total organic carbon removal in nutrient broth shake flasks
Type: cell-based
Details: for % Org. Carbon Removal / Tot. Inorg. Carbon / Tot. Org. Carbon / Total Carbon: 5 Hours
Method: Experiments to look at the above conclusions in depth were performed. In these experiments, cultures of Klebsiella were challenged with various concentrations of BNS and the effects on C02 evolution from glucose, viability, TOC (Total Organic Carbon), TIC (Total Inorganic Carbon) production, removal, and DO (Dissolved Oxygen) removal were determined. Concentrations of BNS from 0.05 to 100 µg/mL were used. […] CO2 evolution decreased after 5 gg/mL. […] The viability dropped off after that with 99% inhibition at concentrations somewhere between 10 - 20 µg/mL. Organic carbon removal gave the most puzzling pattern. […] CO2 was produced, however, as reflected by the C02 blowoff experiments and the TIC data. The organic carbon being oxidized (removed) must have been cancelled out by an organic carbon addition caused by limited bacterial lysis. This phenomenon was investigated again. […] It appeared that 5 ppm BNS would be the maximum concentration that could be used for the desired effect, with the majority of favorable results occurring in the 0.05 - 2 ppm range.
The experiments coordinating the measurements of C02 evolution, TOC reduction, viable count, and dissolved oxygen (DO) reduction were performed as follows: C02 evolution by Klebsiella was measured as described previously using a narrowed set of BNS concentrations. At the same time, Klebsiella cells grown overnight in nutrient broth were standardized into an inoculum of 250 Klett units. These cells were used to inoculate 19 mL quantities of fresh nutrient broth (1 mL inoculum) in baffled shake flasks. These shake flasks were placed into water bath shakers at 37°C and allowed to shake for 5 hours. Concentrations of BNS equivalent to the C02 blowoff experiment were added to the flasks at the beginning of the experiment. Controls containing no BNS were included for comparisons. Total organic carbon measurements were taken after 5 hours incubation. Viable counts were done at 1 hour, 3 hours, and 5 hours. A parallel experiment was performed using the same setup except that after BNS additions, the flasks were shaken for 30 minutes and then held stationary. DO measurements were taken at 5 hours incubation with the use of a YSI Model 54A oxygen meter.

Q: What does the source list for O=[N+]([O-])C(Br)=Cc1ccccc1 [BNS, beta-bromo-beta-nitrostyrene]?
A: % Org. Carbon Removal (BNS 0.05 µg/mL): 37%; Tot. Inorg. Carbon (BNS 0.05 µg/mL): 145 µg/mL; Tot. Org. Carbon (BNS 0.05 µg/mL): 2,205 µg/mL; Total Carbon (BNS 0.05 µg/mL): 2,350 µg/mL; % Org. Carbon Removal (BNS 0.1 µg/mL): +9%; Tot. Inorg. Carbon (BNS 0.1 µg/mL): 155 µg/mL; Tot. Org. Carbon (BNS 0.1 µg/mL): 3,845 µg/mL; Total Carbon (BNS 0.1 µg/mL): 4,000 µg/mL; % Org. Carbon Removal (BNS 0.5 µg/mL): 1%; Tot. Inorg. Carbon (BNS 0.5 µg/mL): 145 µg/mL; Tot. Org. Carbon (BNS 0.5 µg/mL): 3,455 µg/mL; Total Carbon (BNS 0.5 µg/mL): 3,600 µg/mL; % Org. Carbon Removal (BNS 1.0 µg/mL): 6%; Tot. Inorg. Carbon (BNS 1.0 µg/mL): 120 µg/mL; Tot. Org. Carbon (BNS 1.0 µg/mL): 3,280 µg/mL; Total Carbon (BNS 1.0 µg/mL): 3,400 µg/mL; % Org. Carbon Removal (BNS 2 µg/mL): +16%; Tot. Inorg. Carbon (BNS 2 µg/mL): 96 µg/mL; Tot. Org. Carbon (BNS 2 µg/mL): 4,054 µg/mL; Total Carbon (BNS 2 µg/mL): 4,150 µg/mL; % Org. Carbon Removal (BNS 5 µg/mL): +35%; Tot. Inorg. Carbon (BNS 5 µg/mL): 63 µg/mL; Tot. Org. Carbon (BNS 5 µg/mL): 4,737 µg/mL; Total Carbon (BNS 5 µg/mL): 4,800 µg/mL; % Org. Carbon Removal (BNS 10 µg/mL): +11%; Tot. Inorg. Carbon (BNS 10 µg/mL): 12 µg/mL; Tot. Org. Carbon (BNS 10 µg/mL): 3,888 µg/mL; Total Carbon (BNS 10 µg/mL): 3,900 µg/mL; % Org. Carbon Removal (BNS 20 µg/mL): +19%; Tot. Inorg. Carbon (BNS 20 µg/mL): 9 µg/mL; Tot. Org. Carbon (BNS 20 µg/mL): 4,191 µg/mL; Total Carbon (BNS 20 µg/mL): 4,200 µg/mL; % Org. Carbon Removal (BNS 50 µg/mL): +31%; Tot. Inorg. Carbon (BNS 50 µg/mL): 7 µg/mL; Tot. Org. Carbon (BNS 50 µg/mL): 4,593 µg/mL; Total Carbon (BNS 50 µg/mL): 4,600 µg/mL; % Org. Carbon Removal (BNS 100 µg/mL): +102%; Tot. Inorg. Carbon (BNS 100 µg/mL): 7 µg/mL; Tot. Org. Carbon (BNS 100 µg/mL): 7,093 µg/mL; Total Carbon (BNS 100 µg/mL): 7,100 µg/mL; concentrations resulting in increases in TOC (nutrient broth, 5 hours): ≥ 2 µg/mL
